What was measured:
thymidine [1] = assay: Thymidine degradation test, chemical oxidant stress (Fenton's reagent), competition ELISA of remaining thymidine; format: biochemical; settings: dipotassium salt (Nor-B); Fenton's reagent 0.35 mM FeSO4/EDTA, 35 mM H2O2; thymidine 70 μM, antioxidant 20 μM; FIG. 3; compared with conventional antioxidants (1)-(6)
Method: (§1) The evaluation of the antioxidant activity of the dipotassium salt of norbadione was carried out by a screening test in vitro.
(§2) This test is based on the monitoring of the degradation of thymidine subjected to various oxidant stresses in the presence of various antioxidant agents, which are norbadione in dipotassium salt form (called Nor-B in FIGS. 1 to 3) in accordance with the invention, and the following antioxidant agents: quercitin (1), fisetin (2), myricetin (3), catechin (4), 7-hydroxy-4-methyl-8-nitrocoumarin (5), Trolox (6) in FIGS. 1 to 3.
(§3) In the presence of an antioxidant, thymidine is protected more or less effectively according to the nature of the said antioxidant. The efficacy of the antioxidant is quantified by assaying the remaining thymidine (quantified as % on the y-axis of the graph) with the aid of an immunoenzymatic assay of the so-called “competition” ELISA type. This ELISA assay consists in producing competition, for binding to a thymidine-specific monoclonal antibody attached to a solid phase, between the thymidine remaining at the end of test and the thymidine labelled with an enzyme (acetylcholine esterase). After washing, the bound enzyme is quantified by colorimetric detection with the aid of 5,5′-dithiobis(2-nitrobenzoic acid) (termed Ellmann's reagent) and in the presence of […]. […]

thymidine [2] = assay: Thymidine degradation test, ultraviolet irradiation at 254 nm with H2O2, competition ELISA of remaining thymidine; format: biochemical; settings: dipotassium salt (Nor-B); UV 254 nm (1.75 J/cm^2), 5 mM H2O2; thymidine 70 μM, antioxidant 100 μM; FIG. 2; compared with conventional antioxidants (1)-(6)
Method: as §1, §2, §3

thymidine [3] = assay: Thymidine degradation test, gamma irradiation (caesium 137), competition ELISA of remaining thymidine; format: biochemical; settings: dipotassium salt (Nor-B); gamma irradiation 3 h 30 min, 137Cs; thymidine 15 μM, antioxidant 12 μM; FIG. 1; compared with quercetin, fisetin, myricetin, catechin, 7-hydroxy-4-methyl-8-nitrocoumarin, Trolox
Method: as §1, §2, §3

rat aorta rings [4] = assay: Relaxation of rat aorta rings induced by SYN-1 (3-morpholinosydnonimine, NO radicals); settings: dipotassium salt form, 100 μM; FIG. 9
Method: (§4) The objective of this example is to show the antioxidant activity of norbadione in the dipotassium salt form on rat aorta rings.
During a second series of tests, rat aorta rings are subjected to SYN-1 (3-morpholinosydnonimine), which generates NO radicals, inducing relaxation of the rat aorta rings, and the rate of relaxation of these rings is measured. In the presence of norbadione, the rate of relaxation of the rings is measured under the same conditions as those mentioned above. The results are presented in FIG. 9, which represents the rate of vascular relaxation of the rings R(%) as a function of the Sin−1 concentration [Sin−1] (μM), in the absence of norbadione (curve a) and in the presence of norbadione (100 μM) (curve b).

[5] = system: RDM4 cell cultures (AKR mouse lymphomas); assay: Protection of RDM4 cells subjected to ionizing radiation, Uptiblue test; format: cell-based; settings: for number of living cells after irradiation (Uptiblue fluorescence, A.F.U.): 0.12 to 20 μg/ml added two hours before X rays 15 MV, 8 Gy, sixth day, FIG. 6
Method: This test consists in measuring, in the presence or in the absence of norbadione in diacid or dipotassium salt form, the rate of survival of cells treated with ionizing radiation, with the aid of selective indicators for certain cellular organelles such as mitochondria.
Samples of norbadione in diacid or dipotassium salt form are added to RDM4 cell cultures (AKR mouse lymphomas) in increasing concentrations (from 0.12 to 20 μg/ml), two hours before irradiation. This is carried out by exposing microtest plates containing the cells to X rays of 15 MV, at 8 Gy, the culture medium being unchanged.
The number of living cells is determined on the sixth day by means of the Uptiblue test (which consists in measuring the micochondrial activity of the cells). The Uptiblue reagent (reazurin, also marketed under the ALAMAR BLUE trade mark) is a coloured oxidation-reduction indicator. The reazurin (blue and nonfluorescent) is reduced to resorufin (pink and fluorescent) by living cells.
Experimentally, the Uptiblue (diluted ¼ in the culture medium) is added to the cells in an amount of 20 μl per 200 μl well. After incubating for 4 hours at 37° C., the fluorescence is measured at a wavelength of 590 nm, after excitation at a wavelength of 530 nm with the aid of a fluorescence microplate reader (Fluorolite 1000, Dynex). The fluorescence intensity is proportional to the number of living cells. It is expressed as “arbitrary fluorescence unit”. This value depends on the setting of the apparatus (in particular the voltage) and the background noise (due to the fluorescence emitted by wells not containing cells, but containing Uptiblue). The latter value is subtracted from the experimental values.
The results of this test are grouped together in FIG. 6, which represents the fluorescence observed which makes it possible to quantify the number of living cells, the said fluorescence being expressed as arbitrary fluorescence units on the y-axis of the graph (A.F.U) as a function of the concentration of norbadione in the diacid or dipotassium salt form, noted [Nor-A] or [Nor-B] (in μg/ml).

rat aorta rings [6] = assay: Contraction of rat aorta rings induced by pyrogallol (superoxide radicals); settings: dipotassium salt form, 100 μM; FIG. 8
Method: as §4
During a first series of tests, rat aorta rings are subjected, in a first instance, to pyrogallol, which generates superoxide radicals, these radicals inducing contraction of the rat aorta rings and the rate of contraction of these rings is measured in the absence of norbadione.
In a second instance, the same operations are repeated, under the same conditions as those mentioned above, this time in the presence of norbadione.
The results are grouped together in FIG. 8, which represents the rate of vascular contraction of the rings C(g) as a function of the concentration of pyrrogallol [Pyr] (μM), in the absence of norbadione (curve a) and in the presence of norbadione at the concentration of 100 μM (curve b).

IL-10 = IL-10 production by lipopolysaccharide-activated human PBMC, cytometric sandwich ELISA; format: cell-based; settings: 10^-8 M to 10^-5 M, Salmonella abortus equi lipopolysaccharide 5 μg/ml, 24 hours, FIGS. 4 and 5
Method: (§5) This liposaccharide is an endotoxin located on the outer membrane of Gram-negative bacteria. In particular, it stimulates the production of proinflammatory cytokines by the mononuclear cells (monocytes, microphages) of the infected host.
(§6) This test is carried out in the following manner. […]
(§7) More specifically, the detection of the cytokines present in the samples is measured with the aid of a “sandwich” type cytometric ELISA assay. Microparticles (beads) of polystyrene (of 6 different types, each being labelled with a different quantity of fluorescent dye whose FL-3 emission wavelength is about 650 nm) are coupled to an antibody specific for one of the […] TNFα, IL-2, IL-10. […] The cytokines captured are detected with the aid of a directly performed immunological test which uses 2 antibodies specific for each cytokine, coupled to phycoerythrin which emits at an FL-2 wavelength of about 585 nm (Ab-PE). After washing the excess Ab-PE, the presence of the cytokines is measured by flow cytometry.
(§8) The fluorescence is measured based on the 6 FL-3 fluorescence intensities and based on the FL-2 wavelength. The intensity of the […] fluorescence makes it possible to determine the quantity of each cytokine present in the sample (in comparison with standard curves). […]

TNF-α = TNF-α production by lipopolysaccharide-activated human PBMC, cytometric sandwich ELISA; format: cell-based; settings: 10^-8 M to 10^-5 M, Salmonella abortus equi lipopolysaccharide 5 μg/ml, 24 hours, FIGS. 4 and 5
Method: as §5, §6, §7, §8

[7] = system: Human thyroid carcinoma K1 cells; assay: Protection of K1 cells against cisplatin, sulphorhodamine B test; format: cell-based; settings: norbadione 20 μg/ml added two hours before cisplatin 12 to 100 μM, two days, FIG. 7
Method: This test consists in measuring, in the presence of norbadione in the diacid or dipotassium salt form, the rate of survival of cells treated with cisplatin.
Human thyroid carcinoma K1 cells are cultured in flat-bottomed 96-well microtest plates in the presence of a single concentration (20 μg/ml) of norbadione in the diacid or dipotassium salt form. After two hours, a genotoxic agent, cisplatin, is added to the culture medium in increasing concentrations (from 12 to 100 μm). Two days later, the number of cells is determined by means of the sulphorhodamine B (termed SRB) test, which measures the quantity of cellular proteins.
Sulphorhodamine B (termed SRB) is an anionic dye which binds electrostatically to cellular proteins. This test is frequently used for the evaluation of the cytotoxic and cytostatic activities of novel antitumour drugs.
Further information relating to this technique is available in the article by Papazisis et al. “Optimization of the sulforhodamine B colorimetric assay”, J. Immunol. Meth, 208, pages 151-158, 1997 [8].
The results of this test are grouped together in FIG. 7, which represents the fluorescence observed after addition of SRB (expressed as arbitrary fluorescence units) as a function of the cisplatin concentration (in μM).

Compound | antioxidant power (percentage of thymidine remaining after oxidant stress) (thymidine [1]) | antioxidant power (percentage of thymidine remaining after oxidant stress) (thymidine [2]) | antioxidant power (percentage of thymidine remaining after oxidant stress) (thymidine [3]) | relaxation of the aorta rings caused by SYN-1 (rat aorta rings [4]) | number of living cells after irradiation (Uptiblue fluorescence) at the highest concentration ([5]; RDM4 cells, X rays 8 Gy, from a norbadione concentration of 20 μg/ml) | effect on the growth and the viability of the RDM4 cells ([5]; without irradiation, even at 20 μg/ml) | contraction of the aorta rings caused by pyrogallol (rat aorta rings [6]) | production of the cytokine IL-10 (percentage response relative to control) (IL-10) | production of the cytokine TNF-α (percentage response relative to control) (TNF-α) | cytotoxicity of cisplatin in the presence of norbadione (SRB test) [7] | number of living cells after irradiation (Uptiblue fluorescence, A.F.U.) ([5]; RDM4 cells) | number of living cells after irradiation (Uptiblue fluorescence, A.F.U.) ([5]; RDM4 cells, listed as norbadione disalt form) | number of living cells after irradiation (Uptiblue fluorescence, A.F.U.) ([5]; RDM4 cells, listed as norbadione diacid form)
norbadione | best antioxidant power | best antioxidant power | best antioxidant power | reduced | decreases considerably | without effect | suppressed | – | – | – | – | – | –
O=C1O/C(=C(/C(=O)[O-])c2ccc(O)cc2)C(O)=C1c1cc2c3c(c(O)cc(C4=C(O)/C(=C(\C(=O)[O-])c5ccc(O)cc5)OC4=O)c3c1)OC2=O.[K+].[K+] [Nor-B, norbadione] | – | – | – | – | – | – | – | significant dose-dependent reduction | significant dose-dependent reduction | very markedly attenuated | large increase | protects the cells against ionizing radiation in a significant and dose-dependent manner | –
O=C1O/C(=C(/C(=O)O)c2ccc(O)cc2)C(O)=C1c1cc2c3c(c(O)cc(C4=C(O)/C(=C(\C(=O)O)c5ccc(O)cc5)OC4=O)c3c1)OC2=O [Nor-A, norbadione] | – | – | – | – | – | – | – | significant dose-dependent reduction | significant dose-dependent reduction | very markedly attenuated | large increase | – | protects the cells against ionizing radiation in a significant and dose-dependent manner
